Assay results published in patent US6486209B2, “Use for 1,3-propanediol derivatives” (Novartis AG, priority 1996, dated 2002).

How the values were obtained:
[1] = test system: Syrian hamster heart xenograft in rat; assay: In vivo heart xenotransplantation (hamster-to-rat); conditions: 5-30 mg/kg/day orally
Text: B. In vivo heart xenotransplantation (hamster-to-rat)
The hamster-into-rat xenograft combination is a so-called difficult concordant combination. […] This is visualized in histology by destruction of blood vessels, exsudation and extravasation of erythrocytes, and influx by polymorphonuclear granulocytes; often there are signs of hemorrhage and thrombosis. Once this rejection has been overcome by effective inhibition of antibody synthesis or complement inactivation, a cellular rejection can emerge later on. This is visualized in histology by influx of mononuclear cells, including lymphocytes, lymphoblastoid cells, and macrophages, and destruction of the myocyte parenchyma. The inhibition of cellular rejection requires more immuno-suppression than that of allografts. Congenitally athymic (rnu/rnu) rats lack a competent (thymus-dependent) cellular immune system and generally are unable to reject allografts. Such animals do reject a hamster xenograft within 3-4 days in a similar fashion as euthymic rats, indicative that (at least part of) anti-hamster antibody synthesis in rats occurs following a thymus-independent B-cell response. […]
The graft is monitored daily by palpation of the abdomen. […] Animals are subjected to autopsy; apart from the graft, weight and histology is assessed for thymus, spleen, liver, seminal vesicles and testes. […]

[2] = test system: carotid artery allograft (DA donors, Lewis recipients); assay: Prevention of graft vessel disease: carotid artery transplantation; assay type: in vivo, rat; conditions: 0.1 to 10 mg/kg alone or in combination with Cyclosporin A, 8 weeks, osmotic minipump s.c. or oral
Description: A. Prevention of Graft Vessel Disease
Inbred rat strains DA (RT1^a, donors) and Lewis (RT1^1, recipients of allografts), weighing between 200 and 350 grams are used. The animals are allowed unrestricted access to food and water before and after the operation.
Carotid artery transplantation:
The rats are anaesthetised with isofluorane (Abbott), (4-5% for induction, 1.5-2% for maintenance) and 300 μg atropin sulphate is injected subcutaneously following the induction. The left carotid artery is dissected free. The artery is clamped proximally and distally and a segment of about 7-10 mm is removed. The gap is bridged by an allograft which had also been subjected to 45 min cold ischemia. Ethilon 10/o sutures are used. Finally the skin is closed with 4/0 sutures. If needed, an Alzet osmotic minipump (Alza Corp. Palo Alto, Calif.) is then implanted subcutaneously over the back (alternatively the animals are treated orally).
The rats are subject to one of the following treatments: A compound of formula I alone at the doses of 0.1 to 10 mg/kg, or in combination with Cyclosporin A at the dose of 0.03, 0.3, or 1 mg.kg^−1·day^−1 is administered for 8 weeks either by using Alzet osmotic minipumps implanted subcutaneously or alternatively by oral administration. […]

CCCCCCCCc1ccc(CCC(N)(CO)CO)cc1 [Compound A, 2-amino-2-[2-(4-octylphenyl)ethyl]-1,3-propanediol]
graft survival ([1]; athymic recipients): prolonged graft survival
graft survival ([1]; euthymic recipients): prolonged graft survival
graft infiltration [2]: significantly inhibit
neointima formation [2]: significantly inhibit
